Experiments:
Test in all cases: relative viability (nuclei count vs DMSO), 5 days (fraction); higher = more cells survive
[1] = compound: CC(C)(C)c1cc(NC(=O)Nc2ccc(-c3cn4c(n3)sc3cc(OCCN5CCOCC5)ccc34)cc2)no1 [Quizartinib] + CC(=O)c1c(C)c2cnc(Nc3ccc(N4CCNCC4)cn3)nc2n(C2CCCC2)c1=O [Palbociclib] (partner 0.5 µM)
In short: (§1)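 Values are medians from duplicate plates. Each reflects relative viability, defined as the nuclei count of treated wells over that of vehicle wells. Lung cancer cell lines in 1536-well plates were pin-tool dosed one day after seeding with one drug alone or with a fixed anchor-drug dose plus five library-drug doses (not always all listed) in √10 steps, then fixed, stained and imaged at 4× after 5 days.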

[2] = compound: CC(C)(C)c1cc(NC(=O)Nc2ccc(-c3cn4c(n3)sc3cc(OCCN5CCOCC5)ccc34)cc2)no1 [Quizartinib] + CC1(C)CCC(c2ccc(Cl)cc2)=C(CN2CCN(c3ccc(C(=O)NS(=O)(=O)c4ccc(N[C@H](CCN5CCOCC5)CSc5ccccc5)c(S(=O)(=O)C(F)(F)F)c4)cc3)CC2)C1 [Navitoclax] (partner 0.5 µM)
In short: as §1

[3] = compound: COCC[n+]1c2c(n(Cc3cnccn3)c1C)C(=O)c1ccccc1C2=O [YM155] + C[C@]1(O)C[C@@H](c2nc(-c3ccc4ccc(-c5ccccc5)nc4c3)c3c(N)nccn32)C1 [Linsitinib] (partner 1 µM)
In short: as §1

[4] = compound: COCC[n+]1c2c(n(Cc3cnccn3)c1C)C(=O)c1ccccc1C2=O [YM155] + C[C@@H](Oc1cc(-c2cnn(C3CCNCC3)c2)cnc1N)c1c(Cl)ccc(F)c1Cl [Crizotinib] (partner 1 µM)
In short: as §1

Cell Line | relative viability ([1]; first compound 0.001 µM) | relative viability ([1]; first compound 0.003162 µM) | relative viability ([1]; first compound 0.01 µM) | relative viability ([1]; first compound 0.03162 µM) | relative viability ([1]; first compound 0.1 µM) | relative viability ([2]; first compound 0.001 µM) | relative viability ([2]; first compound 0.003162 µM) | relative viability ([2]; first compound 0.01 µM) | relative viability ([2]; first compound 0.03162 µM) | relative viability ([2]; first compound 0.1 µM) | relative viability ([3]; first compound 0.002 µM) | relative viability ([3]; first compound 0.006325 µM) | relative viability ([3]; first compound 0.02 µM) | relative viability ([3]; first compound 0.06325 µM) | relative viability ([4]; first compound 0.002 µM) | relative viability ([4]; first compound 0.006325 µM) | relative viability ([4]; first compound 0.02 µM) | relative viability ([4]; first compound 0.06325 µM)
HOP-62 | 0.438 | 0.357 | 0.526 | 0.459 | 0.349 | 1 | 0.888 | 1.16 | 1.01 | 1.1 | 0.906 | 1.02 | 1.32 | 0.92 | 0.91 | 1.01 | 0.919 | 0.983
HCC-44 | 0.943 | 1.04 | 0.997 | 0.921 | 0.949 | 0.891 | 0.952 | 1.04 | 0.955 | 0.817 | 0.712 | 0.724 | 0.715 | 0.664 | 0.805 | 0.755 | 0.845 | 0.776
NCI-H1993 | 0.673 | 0.58 | 0.67 | 0.633 | 0.825 | 0.964 | 0.906 | 1.13 | 0.959 | 0.793 | 0.678 | 0.701 | 0.777 | 0.697 | 1.01 | 0.825 | 0.703 | 0.552
A-427 | 0.425 | 0.48 | 0.523 | 0.485 | 0.505 | 0.94 | 0.881 | 0.869 | 0.906 | 0.95 | 1.06 | 1.22 | 1.12 | 1.09 | 0.959 | 0.839 | 0.89 | 0.865
